Several values for one entry are separate records, joined by “and”; a condition that tells them apart may be missing. Equal entries are not always repeated. Marks after values point to notes of the source that are not given here.
Experiments:
5α-reductase [1] = experiment: Fatty acid esters on 5α-reductase activity, conversion of testosterone to 5α-dihydrotestosterone in normal human dermal fibroblast cultures (Example 4); type: cell-based; parameters: key to group by 5α-reductase inhibitory activity: group A with the highest inhibitory activity; group B with an intermediate inhibitory activity; conditions: for inhibition of the 5α-reductase activity: Example 4, p<0.05; for 5α-DHT formed per culture well, mean / 5α-DHT formed per culture well, single well: after 24 of incubation, DMSO 0.1% (v/v); for 5α-DHT formed per culture well, single well: single replicate
Method: (§1) The fibroblast culture medium (FCM) consisted of MEM/M199 (3:1, v/v) supplemented with penicillin (50 IU/ml), streptomycin (50 μg/ml), sodium bicarbonate (0.2%, w/v) and FCS (10%, v/v).
(§2) The assay system consisted of normal human dermal fibroblasts cultured as a monolayer. The fibroblasts were isolated from a residue from abdominal plastic surgery performed on a person (subject BIOPREDIC No. I0013). The cells were used at the fifth passage; they were cultured until the monolayers were confluent in FCM medium at 37° C. in a humid atmosphere containing 5% CO2.
(§3) The fibroblast incubation medium (FIM) consisted of FCM supplemented with tritiated testosterone (1.6×10^−7 M, that is 6.32 μCi/ml) and nonradiolabeled testosterone (3.84×10^−6 M)
The test products and finasteride were taken up in DMSO before being diluted in the incubation medium. […]
(§4) The fibroblast cultures were preincubated in the presence of the test products or of the reference product for 2 hours before adding the substrate, testosterone. For this step, the test products and the reference product were prepared in the FCM medium.
After preincubation, the fibroblast cultures were incubated in the presence of the test products or of the reference product prepared in the FIM medium for 22 hours at 37° C. in a humid atmosphere containing 5% CO2. Control cultures were incubated in the FIM medium in the absence of test products and of reference product. […]
(§5) Each experimental condition was tested in triplicate.
(§6) After the incubation period, the cells were subjected to the action of ultrasound in the FIM medium. The cellular lysates thus obtained were extracted with dichloromethane. After evaporation, the dry residues were taken up in methanol and were deposited on 60F254 silica plates (MERCK, reference 5554).
(§7) The migration solvent was a mixture of dichloromethane and ether (7:3, v/v) At the end of the migration, the silica plates were read using a BERTHOLD radioactivity scanner.
(§8) The metabolizing of testosterone to 5α-dihydro-testosterone under the various experimental conditions was calculated: the results (areas of the 5α-dihydrotestosterone peaks counted by the BERTHOLD scanner) were expressed in pmol of 5α-dihydro-testosterone formed per culture well. They were also expressed as a percentage of the 5α-reductase activity present in the “DMSO control” group.
(§9) The groups of data (control group and treated groups) were treated by a one-way analysis of variance (ANOVA 1, p<0.05), followed by a DUNNETT's test (p<0.05). The effect of the test products and of the reference product was compared with the “DMSO control” group. The effects of the test products were compared to each other by a two-way analysis of variance (ANOVA 2, p<0.05, factor 1=concentration and factor 2=treatment).
The same materials and methods are used as in example 3 above.
It was proposed to evaluate the effect of fatty acid esters on the 5α-reductase activity. An in vitro model of normal human dermal fibroblast cultures was selected. The products tested were chosen from the group of fatty acid esters varying in the length and the functionality of the fatty chain, and the nature of the alkoxy group. These esters are the following: methyl oleate, methyl linoleate, methyl stearate, methyl laurate, methyl undecylenate, butyl oleate, oleyl oleate and methyl ricinoleate.

5α-reductase [2] = experiment: 5α-reductase activity, conversion of testosterone to 5α-dihydrotestosterone in normal human dermal fibroblast cultures (Example 3); type: cell-based; conditions: for 5α-reductase activity as percentage of the DMSO group / 5α-DHT formed per culture well, mean / 5α-DHT formed per culture well, single well: 22 hours of incubation; for 5α-DHT formed per culture well, mean / 5α-DHT formed per culture well, single well: DMSO 1% (v/v); for 5α-DHT formed per culture well, mean: mean of triplicate; for 5α-DHT formed per culture well, single well: single replicate; for inhibition of the 5α-reductase activity: text of Example 3
Method: It is proposed to evaluate the effect of the products such as methyl oleate (Sigma commercial product, 99% purity), of the methyl esters of avocado and of a Serenoa Repens extract chosen as reference on the 5α-reductase activity. An in vitro model of normal human dermal fibroblast cultures was selected.
as §1, §2, §3
The test products and finasteride were taken up in DMSO before being diluted in the incubation medium. The final concentration of DMSO was kept constant and equal to 1% (v/v) in each dilution of test products and reference products.
as §4
After preincubation, the fibroblast cultures were incubated in the presence of the test products or of the reference product prepared in the FIM medium for 22 hours at 37° C. in a humid atmosphere containing 5% CO2. Control cultures were incubated in the FIM medium in the absence of test products and of reference product. “DMSO control” cultures were incubated in the FIM medium containing 1% (v/v) of DMSO.
as §5, §6
Nonradiolabeled standards, testosterone, 5α-dihydro-testosterone and androstenedione, were deposited on each of the plates.
as §7
The nonradiolabeled standards were visualized by spraying 5% sulfuric acid (v/v) over the chromatography plates which were then heated at 100° C. for 10 minutes.
Comparison of the Rf values (relative retardation factor) determined for the standards with those obtained for the various radioactive metabolites allowed the identification of the latter.
as §8, §9

## CCCCCCCC/C=C\CCCCCCCC(=O)OC [Methyl oleate, methyl oleate]
5α-reductase [1]; 1 μg/ml
  5α-reductase activity as percentage of the “DMSO 0.1% (v/v)” group: 71 percentage of the “DMSO 0.1% (v/v)” group
  inhibition of the 5α-reductase activity: 29%
  5α-DHT formed per culture well, mean: 8.12* +/− pmol of 5α-DHT formed/culture well
  5α-DHT formed per culture well, single well: 8.24 pmol of 5α-DHT formed/culture well and 8.28 pmol of 5α-DHT formed/culture well and 7.84 pmol of 5α-DHT formed/culture well
5α-reductase [1]; 10 μg/ml
  5α-reductase activity as percentage of the “DMSO 0.1% (v/v)” group: 58 percentage of the “DMSO 0.1% (v/v)” group
  inhibition of the 5α-reductase activity: 42%
  5α-DHT formed per culture well, mean: 6.61* +/− pmol of 5α-DHT formed/culture well
  5α-DHT formed per culture well, single well: 6.28 pmol of 5α-DHT formed/culture well and 6.44 pmol of 5α-DHT formed/culture well and 7.12 pmol of 5α-DHT formed/culture well
5α-reductase [1]; 100 μg/ml
  5α-reductase activity as percentage of the “DMSO 0.1% (v/v)” group: 64 percentage of the “DMSO 0.1% (v/v)” group
  inhibition of the 5α-reductase activity: 26%
  5α-DHT formed per culture well, mean: 7.24* +/− pmol of 5α-DHT formed/culture well
  5α-DHT formed per culture well, single well: 7.52 pmol of 5α-DHT formed/culture well and 7.00 pmol of 5α-DHT formed/culture well and 7.20 pmol of 5α-DHT formed/culture well
5α-reductase [1]; tested at 1, 10 and 100 μg/ml
  group by 5α-reductase inhibitory activity: A
5α-reductase [2]; 1 μg/ml
  5α-reductase activity as percentage of the DMSO group: 76 percentage of the DMSO group
  5α-DHT formed per culture well, mean: 6.48* +/− pmol of 5α-DHT formed/culture well
  5α-DHT formed per culture well, single well: 7.12 pmol of 5α-DHT formed/culture well and 6.24 pmol of 5α-DHT formed/culture well and 6.08 pmol of 5α-DHT formed/culture well
  inhibition of the 5α-reductase activity: 24%
5α-reductase [2]; 10 μg/ml
  5α-reductase activity as percentage of the DMSO group: 62 percentage of the DMSO group
  5α-DHT formed per culture well, mean: 5.32* +/− pmol of 5α-DHT formed/culture well
  5α-DHT formed per culture well, single well: 3.00 pmol of 5α-DHT formed/culture well and 7.04 pmol of 5α-DHT formed/culture well and 5.92 pmol of 5α-DHT formed/culture well
  inhibition of the 5α-reductase activity: 38%
5α-reductase [2]; 100 μg/ml
  5α-reductase activity as percentage of the DMSO group: 59 percentage of the DMSO group
  5α-DHT formed per culture well, mean: 5.05* +/− pmol of 5α-DHT formed/culture well
  5α-DHT formed per culture well, single well: 5.44 pmol of 5α-DHT formed/culture well and 5.12 pmol of 5α-DHT formed/culture well and 4.60 pmol of 5α-DHT formed/culture well
  inhibition of the 5α-reductase activity: 41%
5α-reductase [2]; tested at 10 and 100 μg/ml, compared with Serenoa repens extract
  5α-reductase inhibitory activity, in words: significantly higher than that of the Serenoa repens extract

— patent US8318186B2, “Use of at least a fatty ester for preparing a composition designed to inhibit 5-α-reductase activity, in pharmacology, in particular dermatology, in cosmetics and as food additive” (Laboratoires Expanscience, priority 2000, dated 2012)
